The results in this text go back to paper PMC12311110 (Nature Communications, 2025).

One assay concerns the target T1, hRetromer (Homo sapiens, UniProt O75436+Q96QK1+Q9UBQ0).
T1 construct: GST (pGEX4T-2, thrombin site plus linker) (N, cleaved yes); made in house; host or cells: E. coli BL21 (DE3)
The assay can be described thus: Isothermal titration calorimetry (ITC) of binding to Retromer. Conditions: 25 °C; for Kd / -TΔS / ΔG / ΔH: ITC, mean of triplicate titrations. How it is done:
All the bacteria constructs were expressed in BL21 (DE3) cells using the autoinduction method. In brief, cultures grown in complex medium were incubated at 37 °C for 4 h, followed by overnight growth at 20 °C before harvesting for purification. […] In all cases, the soluble fractions clarified by centrifugation were loaded onto pre-equilibrated glutathione sepharose (GE healthcare) for initial purification. For Retromer, an additional Talon® resin purification step was performed to ensure the correct stoichiometry. GST-tag removal was carried out co-column overnight by adding thrombin for Human Retromer and PreScission protease for TBC1D13. The GST-tag removed fraction was further purified by size-exclusion chromatography (SEC) using a Superdex 200 (16/600) column (GE Healthcare) equilibrated with buffer containing 50 mM Tris-HCl pH 7.5, 200 mM NaCl, 2 mM β-ME.
The effect of cyclic peptide was assessed by pre-mixing 140 µM RT-D1 into 14 µM Retromer before titrating with 1 mM of native DENND4C1189-1206 peptide. For the binding experiment between Retromer and TBC1D13, 530 µM of TBC1D13 was titrated into 14 µM Retromer. The effect of the cyclic peptide was tested using the same concentration of RT-D1 as described above. All ITC experiments consisted of an initial 0.4 μl (not used in data processing), followed by 12 serial injections of 3.22 μl each with 180 sec intervals. The resulting titration data were integrated with the Malvern software package by fitting and normalised data to a single-site binding model. This yielded the thermodynamic parameters for all binding experiments, including the dissociation constant (Kd), enthalpy (∆H), Gibbs free energy (∆G) and -T∆S. The stoichiometry (N) was refined initially, and if the value was close to 1, then it was set to exactly 1.0 for calculation. The data presented are the mean of triplicate titrations for each experiment.
In general terms: ITC needs no label: the signal is the heat of the interaction.

Assay [1] concerns colocalization with VPS35 or SNX1 in HeLa cells. The assay can be described thus: Immunofluorescence colocalization analysis (Manders/Pearson coefficients). It is filed as cell-based, human. Conditions: mean of the 3 experiment averages (n = 3). How it is done:
HeLa cells were seeded onto 13 mm coverslips. Cells were fixed in 4% (v/v) paraformaldehyde (PFA) (Pierce, 28906) in PBS for 20 min and permeabilised in 0.1% (v/v) Triton X-100 in PBS (Sigma-Aldrich), or in 0.1% (w/v) saponin (sigma-Aldrich) in PBS when labelling LAMP1 compartments, for 5 min followed by blocking with 2% (w/v) BSA (Sigma, 05482) in PBS for 30 min. Coverslips were stained with primary antibodies for 1 hr followed by secondary antibodies for 30 min, then mounted onto glass microscope slides with Fluoromount-G (Invitrogen, 00-4958-02).
Confocal microscope images were taken on a Leica SP5-II confocal laser scanning microscope attached to a Leica DMI 6000 inverted epifluorescence microscope or a Leica SP8 confocal laser scanning microscope attached to a Leica DM l8 inverted epifluorescence microscope (Leica Microsystems), with a 63x UV oil immersion lens, numerical aperture 1.4 (Leica Microsystems, 506192). For the Leica SP8 microscope, ‘lightning’ adaptive image restoration was used to generate deconvolved representative images. Colocalization analysis was performed using Volocity 6.3 software (PerkinElmer) or JACOP plugin from ImageJ-FIJI software. Spinning disk high-resolution images were acquired on an IXplore SpinSR system (Olympus) consisting of an IX83 microscope frame with a CO2 and temperature chamber (Olympus), SoRa W1 twin cam spinning disk unit (Yokogawa) and two back-thinned Fusion BT sCMOS cameras (Hamamatsu). A 488 nm or 561 nm laser provided excitation for the green and red channels, respectively. The SoRa disk with an additional 3.2x magnification changer was used for imaging with excitation light focused to the sample using a 60x/1.4NA oil immersion lens. The system operated in simultaneous twin-cam mode, and the desired fluorescence was selected through the use of either a 525/50 nm or 617/73 nm bandpass filter for the green or red channel, respectively.

In assay [2] the test system is HeLa lines expressing the BioID1 chimeric versions. Nature of the assay: GLUT1 and α5β1-integrin trafficking (lysosomal missorting/colocalization with LAMP1) after biotin incubation. It is filed as cell-based, human. Conditions: 24 h incubation with 50 µM biotin; HeLa lines expressing the BioID1 chimeras; confocal imaging. How it is done: To explore the robustness of the proximity labelling, we performed an initial biased identification of the biotinylated proteins using western analysis of target proteins. Although 12 h incubation with biotin was enough to label some interactors, we chose to perform all experiments using 24 h incubation to maximise the detection of weak and low abundance proximity proteins, and the potential to identify cargo proteins transiting through the sub-domains (Supplementary Fig. 2H). Importantly, we tested whether the actual biotin-labelling process had any detectable effect on Retromer and Retriever-dependent cargo sorting.
HeLa cells were seeded onto 13 mm coverslips. […]
Confocal microscope images were taken on a Leica SP5-II confocal laser scanning microscope attached to a Leica DMI 6000 inverted epifluorescence microscope or a Leica SP8 confocal laser scanning microscope attached to a Leica DM l8 inverted epifluorescence microscope (Leica Microsystems), with a 63x UV oil immersion lens, numerical aperture 1.4 (Leica Microsystems, 506192). […] The system operated in simultaneous twin-cam mode, and the desired fluorescence was selected through the use of either a 525/50 nm or 617/73 nm bandpass filter for the green or red channel, respectively. […]

[3] abbreviates: 140 µM RT-D1 pre-mixed into 14 µM Retromer, then titrated with 1 mM native DENND4C1189-1206 peptide.
Where [4] appears, read: 1 mM DENND4C1189-1206 peptide (native or L1204A) titrated into 14 µM Retromer.

Read-outs that look alike come from different tables or passages of the source. No end group written: not given here.

For AKVVQREDVETGLDPLSL [hDENND4C1189-1206], the Kd (usually a measure of binding affinity in units of concentration) at hRetromer (Microcal PEAQ-ITC, 1 mM DENND4C1189-1206 peptide (native or L1204A) titrated into 14 µM Retromer, single-site binding model, read-out: Kd) came out at 15.4 ± 0.85 µM.
With GFP-DENND4C WT, in assay [1], the GFP-DENND4C dots/section came out at 55.5, the “M1 GFP-DENND4C/VPS35 (Manders coefficient)” value came out at 0.4133 and the “M2 GFP-DENND4C/VPS35 (Manders coefficient)” value is recorded as 0.28.
In the case of “hDENND4C1189-1206 + RT-D1: native DENND4C1189-1206 peptide titrated into Retromer pre-mixed with 140 µM RT-D1 (AKVVQREDVETGLDPLSL; premixed with Retromer and RT-D1; UniProt Q5VZ89 1189-1206, looked up, fragment)”, in the assay with hRetromer (setting [3]), the “-TΔS” value was “No binding detected”, the Kd result is recorded as “No binding detected”, the ΔG entry is recorded as “No binding detected” and the ΔH result was “No binding detected”.
For GFP-DENND4C L1201A, in assay [1], the GFP-DENND4C dots/section is given as 11.1, the “M1 GFP-DENND4C/VPS35 (Manders coefficient)” value was found to be 0.06333 and the “M2 GFP-DENND4C/VPS35 (Manders coefficient)” value is recorded as 0.06433.
As to `O=C(O)CCCC[C@@H]1SC[C@@H]2NC(=O)N[C@@H]21` [biotin], the “Effect of biotin labelling on trafficking of GLUT1 or α5β1-integrin” value in assay [2] was “did not detect significant changes”.
“AKVVQREDVETGLDPASL [hDENND4C1189-1206 L1204A]”: at hRetromer (setting [4]), the “-TΔS” value is “No binding detected”, the ΔG result is “No binding detected” and the ΔH entry was “No binding detected”. Moreover, the Kd entry on hRetromer (Microcal PEAQ-ITC, 1 mM DENND4C1189-1206 peptide (native or L1204A) titrated into 14 µM Retromer, single-site binding model) is on record as “No binding detected”.
Consider “Ac-yIIDTPLGVFLSSLKRC-NH2 [RT-D1, reference compound]”, for which the “Effect of competing RT-D1 on binding of the DENND4C PL-containing peptide” value on hRetromer (ITC competition, 140 µM RT-D1 pre-mixed into 14 µM Retromer, 1 mM DENND4C1189-1206 peptide titrated) is given as “blocked”.
